The assay concerns BXF 1258. Nature of the assay: 3D clonogenic assay, Example 1, BXF 1258. Format: cell-based. Conditions: model BXF 1258. As for the experimental part: In the present study, plinabulin was characterized for its ability to inhibit anchorage independent growth and ex vivo colony formation of tumor cells in semi-solid medium. The compound was investigated in 87 out of 93 originally planned tumor xenografts representing all major cancer types using a 3D clonogenic assay in a 96-well format with colony count based on image analysis as read-out. By using this assay, the investigational compound was assessed for the ability to inhibit anchorage independent growth and ex vivo colony formation of tumor cells in semi-solid medium.
A master stock solution of plinabulin was prepared by dissolving the compound in DMSO at a concentration of 9.9 mM. Working stock solutions were prepared by diluting the master stock solution with DMSO to a concentration of 0.99 mM (330-fold the highest test concentration). Small aliquots of the master and working stock were stored at −20° C. […]
Plinabulin was investigated in 87 PDX models representing a number of cancer types. […] The percentage of viable cells was determined in a Neubauer-hemocytometer using trypan blue exclusion. […]
The clonogenic assay was carried out in a 96 well plate format using ultra low attachment plates. […] Cultures were incubated at 37° C. and 7.5% CO2 in a humidified atmosphere 13 days in total and monitored closely for colony growth using an inverted microscope. […]

Take `CC(C)(C)c1[nH]cnc1/C=c1\[nH]c(=O)/c(=C/c2ccccc2)[nH]c1=O` [plinabulin, (3Z,6Z)-3-Benzylidene-6-{[5-(2-methyl-2-propanyl)-1H-imidazol-4-yl]methylene}-2,5-piperazinedione]: the “absolute IC70” value came out at 3 nM.

Source of the values: patent publication US20240408082A1, “METHODS FOR TREATING CANCERS AND TUMORS” (BEYONDSPRING PHARMACEUTICALS, INC., priority 2021, published 2024).
